Experimental data published in ChEMBL document CHEMBL1201862, “PubChem BioAssay data set” (2004).
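How tested: cells in 96-well plates exposed to compound for 48 hours at five concentrations. Abbreviation: GI50, concentration required for 50% inhibition of growth.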 Activity calls are given as the source filed them. Rule as the data show it: active = GI50 up to about 1.1 µM and inactive = higher.

Key:
Test in all cases: DTP human tumour cell line panel, 48 h
SR = system: SR
SF-268 = system: SF-268
SF-539 = system: SF-539
COLO 205 = system: COLO 205
UACC-257 = system: UACC-257
OVCAR-5 = system: OVCAR-5
SW-620 = system: SW-620
786-0 = system: 786-0
M14 = system: M14
SNB-75 = system: SNB-75
EKVX = system: EKVX
MOLT-4 = system: MOLT-4
NCI-H522 = system: NCI-H522
SK-MEL-28 = system: SK-MEL-28
HCT-15 = system: HCT-15
RXF 393 = system: RXF 393
HOP-92 = system: HOP-92

SMILES	GI50 (SR)	GI50 (SF-268)	GI50 (SF-539)	GI50 (COLO 205)	GI50 (UACC-257)	GI50 (OVCAR-5)	GI50 (SW-620)	GI50 (786-0)	GI50 (M14)	GI50 (SNB-75)	GI50 (EKVX)	GI50 (MOLT-4)	GI50 (NCI-H522)	GI50 (SK-MEL-28)	GI50 (HCT-15) [µM]	GI50 (RXF 393)	GI50 (HOP-92)
CCN(CC)CCCC(C)Nc1ccnc2ccc3nn(C)nc3c12 (configuration not stated)	32.8 µM (inactive)	> 100 µM (inactive)	37.8 µM (inactive)	28.6 µM (inactive)	36 µM (inactive)	> 100 µM (inactive)	22.3 µM (inactive)	37.3 µM (inactive)	23.7 µM (inactive)	> 100 µM (inactive)	> 100 µM (inactive)	25.3 µM (inactive)	–	–	–	–	–
CCOC(=O)COS(=O)(=O)C(F)(F)F	24.7 µM (inactive)	60.4 µM (inactive)	> 100 µM (inactive)	38 µM (inactive)	> 100 µM (inactive)	> 100 µM (inactive)	–	35.4 µM (inactive)	> 100 µM (inactive)	> 100 µM (inactive)	> 100 µM (inactive)	> 100 µM (inactive)	> 100 µM (inactive)	> 100 µM (inactive)	18.5	> 100 µM (inactive)	> 100 µM (inactive)
OC12c3ccccc3C1CCCCC2N1CCCC1 (configuration not stated)	> 100 µM (inactive)	> 100 µM (inactive)	–	> 100 µM (inactive)	> 100 µM (inactive)	–	> 100 µM (inactive)	> 100 µM (inactive)	> 100 µM (inactive)	> 100 µM (inactive)	> 100 µM (inactive)	> 100 µM (inactive)	> 100 µM (inactive)	> 100 µM (inactive)	> 100	> 100 µM (inactive)	–
CCOc1ccc(NC(=O)C2=C(C)NC(C)=C(C(=O)Nc3ccc(OCC)cc3)C2c2ccc(O)c(OC)c2)cc1	–	> 100 µM (inactive)	28.8 µM (inactive)	96.8 µM (inactive)	47.8 µM (inactive)	> 100 µM (inactive)	> 100 µM (inactive)	48.9 µM (inactive)	> 100 µM (inactive)	14.3 µM (inactive)	> 100 µM (inactive)	28.1 µM (inactive)	56.6 µM (inactive)	53.2 µM (inactive)	–	28.9 µM (inactive)	20.4 µM (inactive)
O=C(/C=C/c1ccc(Cl)c(Cl)c1)c1ccc(F)cc1	–	28.2 µM (inactive)	20.8 µM (inactive)	23.3 µM (inactive)	23.8 µM (inactive)	18.3 µM (inactive)	2.05 µM (inactive)	15.5 µM (inactive)	16.9 µM (inactive)	22.9 µM (inactive)	27.4 µM (inactive)	15.8 µM (inactive)	4.45 µM (inactive)	18.6 µM (inactive)	10.2	–	32.2 µM (inactive)
C=C(CO)CC(/C=C(\C)CC/C=C(\C)CCl)OC(C)=O (configuration not stated)	–	> 100 µM (inactive)	> 100 µM (inactive)	> 100 µM (inactive)	–	> 100 µM (inactive)	> 100 µM (inactive)	> 100 µM (inactive)	> 100 µM (inactive)	> 100 µM (inactive)	> 100 µM (inactive)	> 100 µM (inactive)	> 100 µM (inactive)	> 100 µM (inactive)	> 100	> 100 µM (inactive)	5.7 µM (inactive)
C1CN2CCN3CCN4CCN1[PH]243	> 100 µM (inactive)	–	> 100 µM (inactive)	> 100 µM (inactive)	> 100 µM (inactive)	> 100 µM (inactive)	> 100 µM (inactive)	> 100 µM (inactive)	> 100 µM (inactive)	> 100 µM (inactive)	> 100 µM (inactive)	> 100 µM (inactive)	> 100 µM (inactive)	> 100 µM (inactive)	> 100	> 100 µM (inactive)	–
CC1=C(C(=O)CC(=O)C(=O)Nc2ccccc2)Sc2ccccc2N1	–	> 100 µM (inactive)	> 100 µM (inactive)	> 100 µM (inactive)	> 100 µM (inactive)	> 100 µM (inactive)	> 100 µM (inactive)	> 100 µM (inactive)	> 100 µM (inactive)	–	> 100 µM (inactive)	> 100 µM (inactive)	> 100 µM (inactive)	> 100 µM (inactive)	> 100	> 100 µM (inactive)	2.84 µM (inactive)
O=C1OCCC1(Cc1ccc(Cl)cc1)Cc1ccc(Cl)cc1	> 100 µM (inactive)	> 100 µM (inactive)	–	> 100 µM (inactive)	> 100 µM (inactive)	> 100 µM (inactive)	> 100 µM (inactive)	64.6 µM (inactive)	> 100 µM (inactive)	21.6 µM (inactive)	> 100 µM (inactive)	> 100 µM (inactive)	> 100 µM (inactive)	> 100 µM (inactive)	–	–	30.3 µM (inactive)
COC(=O)/C(=C\c1ccc(N(CCC#N)CCC#N)cc1)NC(=O)c1cc([N+](=O)[O-])ccc1Cl	30.5 µM (inactive)	> 100 µM (inactive)	> 100 µM (inactive)	> 100 µM (inactive)	> 100 µM (inactive)	> 100 µM (inactive)	> 100 µM (inactive)	> 100 µM (inactive)	> 100 µM (inactive)	> 100 µM (inactive)	> 100 µM (inactive)	> 100 µM (inactive)	> 100 µM (inactive)	> 100 µM (inactive)	> 100	> 100 µM (inactive)	–
